{"source": "patent US11179348B2", "about": "“Combination comprising pterostilbene for the treatment of cancer” (FUNDACIÓN UNIVERSIDAD CATÓLICA DE VALENCIA SAN VICENTE …, priority 2015, dated 2021)", "key": {"corticosterone": {"tested_on": "corticosterone", "experiment": "Plasma corticosterone levels (ELISA) in tumor-bearing mice", "format": "in vivo", "from_the_text": "Measurement of ACTH, Corticosterone, and NORA Levels.\nPlasma levels of ACTH (Calbiotech, Inc., Spring Valley, Calif.), corticosterone (Kamiyama Biomedical Co., Seattle, Wash.), and NORA (IBL, Hamburg, Germany) were quantified by ELISA according to the instructions of the suppliers."}, "HT-29 cells": {"tested_on": "HT-29 cells", "experiment": "GSH levels and glutathione- and oxidative stress-related enzyme activities in HT-29 cells growing in vivo", "parameters": "species or system human", "details": "HT-29, in vivo Pter, day 21", "experimental": "To measure enzyme activity, isolated tumor cells were homogenized in 0.1 M phosphate buffer (pH 7.2) at 4° C. GCL and GSS activities were measured as described previously (Obrador, E. et al. Hepatology 35, 74-81 (2002)). GPX (selenium dependent) activity was measured as described by Flohé and Gunzler (Flohe, L. & Gunzler, W. A. Methods Enzymol 105, 114-121 (1984)) using H2O2 as a substrate. GSR activity was determined as described by Akerboom and Sies (Akerboom, T. P. et al, Bull Eur Physiopathol Respir 17 Suppl, 221-227 (1981)). GGT activity was measured as described previously (Obrador, E. et al. Hepatology 35, 74-81 (2002)). GST activity was measured using an assay kit from Sigma. TXNRD activity, defined by the concentration of sodium-lipoate (disulfide) reduced to dehydrolipoate (dithiol) per milligram protein, was measured as previously described (Javvadi, P. et al. Cancer Res 70, 1941-1950 (2010)). SOD activity was measured as described by Flohé and Otting (Flohe, L. & Otting, F. Methods Enzymol 105, 93-104 (1984).) using 2 mM cyanide in the assay medium to distinguish mangano-type enzyme (SOD2) from the cuprozinc type (SOD1). CAT activity was analyzed as described by Aebi (Aebi, H. Methods Enzymol 105, 121-126 (1984)). NOX activity was measured by chemiluminescence following the methodology of Wind et al. (Wind, S. et al. Comparative pharmacology of chemically distinct NADPH oxidase inhibitors. Br J Pharmacol 161, 885-898 (2010)). Protein concentration was determined with the Pierce BCA protein assay (Fisher Scientific, Waltham, Mass.).\nGSH, GSSG, NADP^+ and NADPH Determination.\nGSH and GSSG were determined, following procedures previously described (Obrador, E. et al. PLoS One 9, e96466 (2014)), by LC/MS using the same equipment described above for pterostilbene determination. Cell processing was performed according to published methodology, where rapid N-ethylmaleimide derivatization was used to prevent GSH auto-oxidation (Asensi, M. et al. Anal Biochem 217, 323-328 (1994)). NADP^+ and NADPH were quantitated using an assay kit from Sigma (St. Louis, Mo.).\nIsolation of Tumor Cells from Mouse Xenografts Using Enzymatic Digestion and a double Ficoll gradient.\nTo maximize the amount of isolated cells, avoiding the use of RFP-transfected cells and subsequent laser microdissection, an alternative methodology was set up. To maximize cell yield and viability the following combination of enzymes was used: collagenase III (200 U/ml; Sigma-Aldrich), DNase I (200 U/ml; Sigma-Aldrich) and trypsin (5 mg/ml; Invitrogen), and a non-enzymatic dissociation buffer (NEDB, Invitrogen). Briefly, mice were killed, and tumors were removed (avoiding skin, muscle and fat) into cold culture media and processed immediately. The tumors were minced into 1-3 mm fragments, which were then incubated with the dissociation solution (see above) for 30 min at 37° C. The tumor fragments were mixed up and down every 10 min using a […] micropipette with a tip cut to a diameter adapted to tissue fragment size. After each incubation period, the fragments were filtered through a […] nylon mesh cell strainer (BD Biosciences, San Diego, Calif., USA). The released cells were centrifuged at 1200 r.p.m. for 2 min and stored in cold CO2-independent medium with 30% FCS at […]. Fresh dissociation solution was added to the remaining tissue fragments for 30 min. Dissociation was stopped when no additional cells were released. The fragments were pushed through a sieve and all cells from all incubation periods were pooled and counted.\nThe dissociated cells were layered onto a double Ficoll gradient (Histopaque; Sigma-Aldrich; densities 1.077 and 1.119) and spun at 700 g for 30 min at room temperature. Cells removed from both interfaces were pooled and washed two times in CO2-independent medium and stored at 4° C. Debris and red blood cell elimination was improved with the dual-density gradient. […]"}, "A549 human lung cancer": {"tested_on": "A549 human lung cancer", "details": "20 μM Pter, 24 h, in vitro; cited from earlier work"}, "human melanoma": {"tested_on": "human melanoma", "experiment": "Effect of pterostilbene on human melanoma in vivo (growth, Ki-67, TUNEL, nuclear Nrf2)", "description": "Animals, Tumor Growth, and In Vivo Administration of Pter.\nFemale nu/nu nude mice (6-8 weeks; Charles Rivers Laboratories, Wilmington, Mass.) were fed ad libitum on a standard diet (Harlan Teklad Animal Diets & Bedding, Madison, Wis.). Mice were kept on a 12-h-light/12-h-dark cycle with the room temperature at 22° C. […] For cancer xenograft experiments, mice were inoculated s.c. with 10×10^6 cancer cells per mouse. Tumor volume was calculated based on two dimensions, measured using calipers, and was expressed in mm^3 according to V=0.5a×b^2, where a and b are the long and the short diameters of the tumor, respectively. For histological analysis xenograft samples were first fixed in 4% formaldehyde, paraffin embedded, and stained as indicated below. Mice were monitored after inoculation, and tumor measurements were taken every 2 days. For pharmacokinetic and treatment studies Pterostilbene (Green Molecular S. L., Paterna, Spain) [dissolved in DMSO:ethanol (2:1), 50 mg Pter/ml] was administered i.v. through the jugular vein (where, previously, a permanent catheter was surgically fixed). Administration was slowly performed during 1-2 min.\nMonoclonal mouse anti-human HMB45 antibodies (Abcam, Cambridge, UK) were used for immunohistochemical detection of melanoma cells. For that purpose, the tumors were fixed and paraffin embedded as described above. Immunohistochemical analysis was applied to tissue slices (5 μm thick) following the standard methodology recommended by Abcam. A horseradish peroxidase-conjugated goat anti-mouse polyclonal (Abcam) was used as secondary antibody.\nMonoclonal mouse anti-human Ki-67 (Dako, Sant Cugat del Vallés, Spain) were used for immunohistochemical detection of the tumor growing fraction. Immunohistochemical analysis was applied to tissue slices (5 μm thick) following the standard methodology recommended by Dako. A biotin-conjugated goat anti-rabbit polyclonal (Dako) was used as secondary antibody.\nDNA strand breaks in apoptotic cells were assayed by using a direct TUNEL labeling assay (Boehringer, Mannheim, Germany) and fluorescence microscopy following manufacturer's methodology.\nNrf2 Gene Transfer and Measurement.\nThe Tet-Off Advanced Inducible Gene Expression System (Clontech, Palo Alto, Calif.) was used to insert the human Nrf2 gene and for transfection into melanoma cells following manufacturer's instructions. Tet-off cells stably expressed Tet-regulated pTRE-Tight-Nrf2 giving up to an increased Nrf2 gene expression (Tet-Nrf2 cells). To suppress Nrf2 protein levels Tet-Nrf2 cells were cultured in the presence of 2 mg tetracycline (Sigma)/10^6 cells. The NE-PER extraction kit from Thermo Scientific (Rockford, Ill.) was used for nuclear protein extraction according to the manufacturer's instructions. The protein content was determined by the Pierce BCA protein assay. The antibodies (mouse monoclonal primary antibodies) against Nrf2 were purchased from Abcam. A total of 50 mg of protein was boiled in Laemmli buffer and resolved by 12.0% SDS-PAGE. Proteins were transferred to a nitrocellulose membrane (Hybond C-extra, GE Healthcare Europe GmbH, Barcelona, Spain) and subjected to Western blotting. The blotted membrane was blocked for 1 h at room temperature in Tris-buffered saline (TBS) containing 5% (w/v) membrane-blocking reagent (non-fat dried milk). All antibody incubations were carried out at room temperature in TBS containing 1% membrane-blocking reagent. […] Protein bands were quantified using laser densitometry."}, "[1]": {"details": "tumors of Pter-treated melanoma-bearing mice"}}}
{"compound": "COc1cc(/C=C/c2ccc(O)cc2)cc(OC)c1", "note": "[Pter, trans-3,5-dimethoxy-4′-hydroxystilbene]", "values": [{"measurement": "CRC", "setting": "corticosterone; A549-bearing mice, day 35, 12 h circadian time", "result": "61 ± 17", "unit": "ng/mL plasma"}, {"measurement": "CRC", "setting": "corticosterone; A2058-bearing mice, day 35, 12 h circadian time", "result": "123 ± 29", "unit": "ng/mL plasma"}, {"measurement": "CRC", "setting": "corticosterone; AsPC-1-bearing mice, day 28, 12 h circadian time", "result": "217 ± 33", "unit": "ng/mL plasma"}, {"measurement": "CRC", "setting": "corticosterone; B16-F1-bearing mice, day 15, 12 h circadian time", "result": "187 ± 36", "unit": "ng/mL plasma"}, {"measurement": "CRC", "setting": "corticosterone; BxPC-3-bearing mice, day 35, 12 h circadian time", "result": "88 ± 21", "unit": "ng/mL plasma"}, {"measurement": "CRC", "setting": "corticosterone; Caco-2-bearing mice, day 28, 12 h circadian time", "result": "106 ± 23", "unit": "ng/mL plasma"}, {"measurement": "CRC", "setting": "corticosterone; HT-29-bearing mice, day 21, 12 h circadian time", "result": "126 ± 36", "unit": "ng/mL plasma"}, {"measurement": "CRC", "setting": "corticosterone; HepG2-bearing mice, day 35, 12 h circadian time", "result": "187 ± 50", "unit": "ng/mL plasma"}, {"measurement": "CRC", "setting": "corticosterone; LNCaP-bearing mice, day 49, 12 h circadian time", "result": "77 ± 15", "unit": "ng/mL plasma"}, {"measurement": "CRC", "setting": "corticosterone; MCF-7-bearing mice, day 28, 12 h circadian time", "result": "75 ± 20", "unit": "ng/mL plasma"}, {"measurement": "CRC", "setting": "corticosterone; MDA-MB-231-bearing mice, day 35, 12 h circadian time", "result": "84 ± 24", "unit": "ng/mL plasma"}, {"measurement": "CRC", "setting": "corticosterone; MeWo-bearing mice, day 35, 12 h circadian time", "result": "87 ± 17", "unit": "ng/mL plasma"}, {"measurement": "CRC", "setting": "corticosterone; MelJuso-bearing mice, day 35, 12 h circadian time", "result": "80 ± 15", "unit": "ng/mL plasma"}, {"measurement": "CRC", "setting": "corticosterone; PC-3-bearing mice, day 21, 12 h circadian time", "result": "145 ± 30", "unit": "ng/mL plasma"}, {"measurement": "CRC", "setting": "corticosterone; SK-OV-3-bearing mice, day 49, 12 h circadian time", "result": "64 ± 18", "unit": "ng/mL plasma"}, {"measurement": "corticosterone in plasma", "setting": "corticosterone; melanoma-bearing mice, pterostilbene 30 mg/kg every 48 h (FIG. 2A)", "result": "to practically control values"}, {"measurement": "CAT", "setting": "HT-29 cells", "result": "0.3 ± 0.1", "unit": "mU/10^6 cells"}, {"measurement": "GCL", "setting": "HT-29 cells", "result": "57 ± 17", "unit": "mU/10^6 cells"}, {"measurement": "GSH", "setting": "HT-29 cells", "result": "8 ± 2", "unit": "nmol/10^6 cells"}, {"measurement": "GSS", "setting": "HT-29 cells", "result": "6.5 ± 1.7", "unit": "mU/10^6 cells"}, {"measurement": "GSSG", "setting": "HT-29 cells", "result": "0.05 ± 0.02", "unit": "nmol/10^6 cells"}, {"measurement": "SOD1", "setting": "HT-29 cells", "result": "0.2 ± 0.1", "unit": "U/10^6 cells"}, {"measurement": "SOD2", "setting": "HT-29 cells", "result": "0.02 ± 0.01", "unit": "U/10^6 cells"}, {"measurement": "decrease in tumor cell viability", "setting": "A549 human lung cancer", "result": "~40", "unit": "%"}, {"measurement": "melanoma growth inhibition at lower dose", "setting": "human melanoma; 20 mg/kg vs 30 mg/kg", "result": "less effective"}, {"measurement": "melanoma growth inhibition at higher dose", "setting": "human melanoma; 40 mg/kg vs 30 mg/kg", "result": "no further inhibition"}, {"measurement": "nuclear Nrf2 in melanoma cells", "setting": "human melanoma; in vivo Pter-treated vs control melanoma-bearing mice (FIG. 4C)", "result": "decreased"}, {"measurement": "apoptotic cell death in tumors (TUNEL)", "setting": "human melanoma; [1]", "result": "increase"}, {"measurement": "melanoma cell proliferation in tumors (Ki-67 staining)", "setting": "human melanoma; [1]", "result": "decrease"}]}
